Experimental data as given in patent US20080182859A1 (Curis, Inc., priority 2006, published 2008).
pEC50: −log10 of the molar value. Structures can show the parent of a compound that is named as a salt.

How the values were obtained:
[1] = system: C57BL/6 male mice; assay: C57BL/6 hair growth after topical dosing; format: in vivo, mouse; conditions: shaved lower back, dosed topically once, visually graded for melanogenesis and hair regrowth
Method: (§1) A mouse model of male pattern baldness is used to investigate the effectiveness of the present compounds for growing hair. Agonists for the sonic hedgehog pathway that act by binding and activating Smoothened were tested in a formulation of 50:30:20 PG:EtOH:water or 5:95 DMSO:acetone vehicle. C57BL/6 male mice (48-52 days old on arrival) from Charles River Labs were used on the study. The mice were housed and cared for according to established procedures. Food and water were ad libitum. On Day 0, the mice were shaved on their lower back, an area of ˜1.5 inches x ˜2 inches with Wahl clippers using a surgical blade. On day −3, the mice were anesthetized with isoflurane, their back was rinsed with a pad of 70% ethanol, a placebo pellet or a DHT pellet (2.5 mg 21 day pellet) were implanted subcutaneously between the shoulder blades with a 10 gauge trochar. DHT pellet transplantation results in maintenance of existing hair follicles in the resting (telogen) phase. The hole was stapled with a sterile autoclip and the mice were returned to their cage after awaking. The mice were dosed topically once and visually graded daily, except weekends, for melanogenesis and hair regrowth of fur in the dosed area (Table 4).

[2] = system: C57BL/6 male mice; assay: DHT-induced alopecia (mouse model of male pattern baldness); format: in vivo; conditions: C57BL/6 male mice with subcutaneous DHT pellet (2.5 mg 21 day), dosed topically once, visually graded for hair regrowth
Method: as §1
In the absence of treatment with the present compounds, the follicles remain in telogen rather than following the normal time course of the mouse hair cycle.

[3] = system: sonic hedgehog pathway; assay: Hedgehog pathway Gli-luciferase reporter assay, TM3 cells; format: cell-based; conditions: TM3 mouse Leydig cells
Procedure, shortened: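 Luminescence read-out of gli-promoter luciferase in stably transfected cells; 11-point 1:3 dose curves, 24 h compound exposure in 0.5% FBS, ± octyl-modified Hh protein 1–5 ng/ml. AMAX as % of plate low/high controls; EC50 from curve; >20% AMAX counted active.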

[4] = system: sonic hedgehog pathway; assay: Hedgehog pathway Gli-luciferase reporter assay, S12 cells; format: cell-based; conditions: S12 mouse embryonic mesenchymal cells, read-out: S12 Avg. EC50
Procedure, shortened: (§2)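 Agonist mode: cells carrying a luciferase gene downstream of the gli promoter received compound at 1–5 μM in 0.5% FBS for 24 h, optionally sensitised with 1–5 ng/ml octyl-modified hedgehog protein; luminescence gave % activation and EC50.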

[5] = system: sonic hedgehog pathway; assay: Human hedgehog reporter assay HEPM-GliLuc (HGL); format: cell-based; conditions: HepM human embryonic palatal mesenchymal cells, Gli-luciferase reporter
Procedure, shortened: as §2

[6] = system: sonic hedgehog pathway; assay: Human hedgehog reporter assay Daoy-GliLuc (DGL); format: cell-based; conditions: Daoy human medulloblastoma cells, Gli-luciferase reporter; read-out: Daoy Avg. EC50
Procedure, shortened: as §2

pEC50 [3] | pEC50 [6] | SMILES | C57BL/6 Hair Growth [1] | Androgenetic Alopecia [2] | pEC50 [4] | pEC50 [5]
– | – | CN[C@H]1CC[C@H](N(Cc2cc(-c3ccccc3)ccc2OC)C(=O)c2sc3ccccc3c2Cl)CC1 | yes | yes | – | –
– | – | CN[C@H]1CC[C@H](N(Cc2cc(-c3cc(C)nc(C)c3)ccc2OC)C(=O)c2sc3ccccc3c2Cl)CC1 | yes | yes | – | –
– | – | CN[C@H]1CC[C@H](N(Cc2cc(-c3ccc(C(N)=O)cc3)ccc2OC)C(=O)c2sc3c(F)ccc(F)c3c2Cl)CC1 | yes | yes | – | –
– | – | CN[C@H]1CC[C@H](N(Cc2cc(-c3ccnc(C)c3)ccc2OC)C(=O)c2sc3ccccc3c2Cl)CC1 | yes | yes | – | –
– | – | CN[C@H]1CC[C@H](N(Cc2cc(-c3ccc(N)nc3)ccc2OC)C(=O)c2sc3cccc(F)c3c2Cl)CC1 | yes | yes | – | –
– | – | CN[C@H]1CC[C@H](N(Cc2cc(-c3ccc(S(C)(=O)=O)cc3)ccc2OC)C(=O)c2sc3ccccc3c2Cl)CC1 | yes | yes | – | –
– | – | CCOc1ccc(-c2ccc(C)nc2)cc1CN(C(=O)c1sc2ccccc2c1Cl)[C@H]1CC[C@H](NC)CC1 | yes | – | – | –
– | – | CN[C@H]1CC[C@H](N(Cc2cc(-c3ccnc(C(=O)N(C)C)c3)ccc2OC)C(=O)c2sc3c(F)ccc(F)c3c2Cl)CC1 | yes | yes | – | –
– | – | CNC1CCC(N(Cc2cc(-c3ccncc3)ccc2OC)C(=O)c2sc3ccccc3c2Cl)CC1 (stereo not shown) | yes | yes | – | –
– | – | CN[C@H]1CC[C@H](N(Cc2cc(-c3ccc(NS(C)(=O)=O)nc3)ccc2OC)C(=O)c2sc3c(F)ccc(F)c3c2Cl)CC1 | yes | – | – | –
– | – | CCOc1ccc(-c2ccc(C#N)cc2)cc1CN(C(=O)c1sc2ccccc2c1Cl)[C@H]1CC[C@H](NC)CC1 | yes | – | – | –
– | – | CN[C@H]1CC[C@H](N(Cc2cc(-c3ccnc(C(=O)O)c3)ccc2OC)C(=O)c2sc3c(F)ccc(F)c3c2Cl)CC1 | no | – | – | –
> 7.30 | > 7.30 | CNc1cc(-c2ccc(OC)c(CN(C(=O)c3sc4c(F)ccc(F)c4c3Cl)[C@H]3CC[C@@H](NC)CC3)c2)ccn1 [Compound 357, 3-Chloro-4,7-difluoro-benzo[b]thiophene-2-carboxylic acid [2-methoxy-5-(2-methylamino-pyridin-4-yl)-benzyl]-(4-methylamino-cyclohexyl)-amide bis(trifluoroacetate)] | – | – | > 7.30 | > 7.30
> 7.30 | > 7.30 | CN[C@H]1CC[C@@H](N(Cc2cc(-c3ccncc3)ccc2OC)C(=O)c2sc3cccc(F)c3c2Cl)CC1 [Compound 359, 3-Chloro-4-fluoro-benzo[b]thiophene-2-carboxylic acid (2-methoxy-5-pyridin-4-yl-benzyl)-(4-methylamino-cyclohexyl)-amide dihydrochloride] | – | – | > 7.30 | > 7.30
> 7.30 | > 7.30 | CN[C@H]1CC[C@@H](N(Cc2cc(-c3cccnc3)ccc2OC)C(=O)c2sc3c(F)ccc(F)c3c2Cl)CC1 [Compound 361, 3-Chloro-4,7-difluoro-benzo[b]thiophene-2-carboxylic acid (2-methoxy-5-pyridin-3-yl-benzyl)-(4-methylamino-cyclohexyl)-amide dihydrochloride] | – | – | > 7.30 | > 7.30
> 7.30 | > 7.30 | CN[C@H]1CC[C@@H](N(Cc2cc(-c3ccccn3)ccc2OC)C(=O)c2sc3c(F)ccc(F)c3c2Cl)CC1 [Compound 367, 3-Chloro-4,7-difluoro-benzo[b]thiophene-2-carboxylic acid (2-methoxy-5-pyridin-2-yl-benzyl)-(4-methylamino-cyclohexyl)-amide dihydrochloride] | – | – | > 7.30 | > 7.30
> 7.30 | > 7.30 | CN[C@H]1CC[C@H](N(Cc2cc(-c3ccnc(C(=O)OC)c3)ccc2OC)C(=O)c2sc3c(F)ccc(F)c3c2Cl)CC1 [Compound R5, Methyl 4-(3-{[(3-chloro-4,7-difluoro-benzo[b]thiophene-2-carbonyl)-(4-methylamino-cyclohexyl)-amino]-methyl}-4-methoxy-phenyl)-pyridine-2-carboxylate] | – | – | > 7.30 | > 7.30
> 7.30 | > 7.30 | CN[C@H]1CC[C@@H](N(Cc2cc(-c3ccnc(C(=O)N(C)C)c3)ccc2OC)C(=O)c2sc3c(F)ccc(F)c3c2Cl)CC1 [Compound R9, 4-(3-{[(3-Chloro-4,7-difluoro-benzo[b]thiophene-2-carbonyl)-(4-methylamino-cyclohexyl)-amino]-methyl}-4-methoxy-phenyl)-pyridine-2-carboxylic acid dimethylamide dihydrochloride] | – | – | > 7.30 | > 7.30
– | – | CN[C@H]1CC[C@H](N(Cc2cc(-c3ccnc(C(=O)OC)c3)ccc2OC)C(=O)c2sc3c(F)ccc(F)c3c2Cl)CC1 [drawing 714] | yes | yes | – | –
